Measurements reported in patent publication US20190216761A1, “COMPOSITIONS COMPRISING 15-HEPE AND METHODS OF USING THE SAME” (Afimmune Limited, priority 2015, published 2019).
Marks after values point to notes of the source that are not given here.

Legend:
Assay type in all cases: cell-based
[1] = target: T1, hPPARδ (Homo sapiens, UniProt Q03181); test: PPAR agonist reporter assay (Gal4 hybrid receptor, luciferase)
T1 construct: expressed in transfected cells
T1 sequence (Q03181 211-439 limits assumed): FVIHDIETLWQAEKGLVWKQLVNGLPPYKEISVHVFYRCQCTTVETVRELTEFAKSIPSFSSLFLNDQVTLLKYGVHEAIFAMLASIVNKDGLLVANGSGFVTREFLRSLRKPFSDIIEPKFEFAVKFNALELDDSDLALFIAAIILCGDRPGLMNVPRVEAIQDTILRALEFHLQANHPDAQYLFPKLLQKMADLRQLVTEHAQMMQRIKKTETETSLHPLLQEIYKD
Experimental: (§1) This study utilized proprietary reporter cells expressing a hybrid receptor comprising the N-terminal Gal4 DNA binding domain fused to the ligand binding domain of the specific human nuclear receptor (hPPARα, hPPARδ, and hPPARγ) and rat nuclear receptor (rPPARα, rPPARδ, and rPPARγ). The reporter vectors used in this Example comprise the firefly luciferase gene functionally linked to the Gal4 upstream activation sequence.
(§2) Nuclear Receptor assay was performed by dispensing 100 μL of a suspension of Reporter Cells in Cell Recovery Medium (CRM) containing 10% charcoal stripped FBS into each well of a white 96-well plate. Test compounds were diluted using compound screening medium (CSM) containing 10% charcoal stripped FBS to generate “2×-concentration” treatment media. Immediately after this dilution step, 100 μL of each diluted 2×-concentration treatment medium was dispensed (in triplicate) into the Reporter Cell-containing assay wells.
(§3) After incubation at 37° C. for 24 hours, the treatment media was discarded. 100 μL of Luciferase Detection Reagent substrate was added to each well and RLUs were quantified from each well to determine nuclear receptor activities.

[2] = target: T2, hPPARα (Homo sapiens, UniProt Q07869); test: as above
T2 construct: expressed in transfected cells
T2 sequence (Q07869 239-466 limits assumed): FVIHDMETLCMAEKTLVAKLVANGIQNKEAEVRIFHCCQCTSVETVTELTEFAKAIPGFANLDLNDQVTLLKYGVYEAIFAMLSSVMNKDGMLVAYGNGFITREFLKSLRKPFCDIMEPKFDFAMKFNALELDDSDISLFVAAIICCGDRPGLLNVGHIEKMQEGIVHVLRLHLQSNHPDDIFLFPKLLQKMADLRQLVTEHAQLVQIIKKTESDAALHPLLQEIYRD
Experimental: as §1, §2, §3

[3] = target: T3, rPPARα (Rattus norvegicus, UniProt P37230); test: as above
T3 construct: expressed in transfected cells
T3 sequence (P37230 239-466 limits assumed): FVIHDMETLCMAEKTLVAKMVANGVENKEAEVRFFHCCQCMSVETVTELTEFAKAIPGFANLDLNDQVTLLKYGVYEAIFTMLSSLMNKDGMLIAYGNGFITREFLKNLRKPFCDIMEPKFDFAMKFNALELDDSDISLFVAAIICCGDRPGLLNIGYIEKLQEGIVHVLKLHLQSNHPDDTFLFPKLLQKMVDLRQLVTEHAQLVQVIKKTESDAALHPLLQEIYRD
Experimental: as §1, §2, §3

[4] = target: T1, hPPARδ; test: PPAR antagonist reporter assay (reference agonist at EC80)
Experimental: as §1
(§4) Nuclear Receptor assay was performed by suspending Reporter Cells in CRM containing 10% charcoal stripped FBS. 2×-EC80 concentrations of the appropriate reference agonist were then added to the Reporter Cell suspension, and 100 μL of the mixture dispensed into wells of a white 96-well plate. Test compounds were diluted using compound screening medium (CSM) containing 10% charcoal stripped FBS to generate “2×-concentration” treatment media. Immediately after this dilution step, 100 μL of each diluted 2×-concentration treatment medium was dispensed (in triplicate) into the Reporter Cell-containing assay wells.
(§5) After incubation at 37° C. for 24 hours, the treatment media was discarded. Each well was rinsed once with LCM Buffer; LCM substrate was then added. After incubation for 30 minutes at 37° C., fluorescence was measured to determine the relative number of live cells per assay well. LCM substrate was then discarded and 100 μL of Luciferase Detection Reagent substrate was added to each well. RLUs were quantified from each well to determine nuclear receptor activities.

[5] = target: T2, hPPARα; test: as above
Experimental: as §1, §4, §5

[6] = target: T3, rPPARα; test: as above
Experimental: as §1, §4, §5

[7] = target: T4, hPPARγ (Homo sapiens, UniProt P37231); test: as above
T4 construct: expressed in transfected cells
T4 sequence (P37231 238-503 limits assumed): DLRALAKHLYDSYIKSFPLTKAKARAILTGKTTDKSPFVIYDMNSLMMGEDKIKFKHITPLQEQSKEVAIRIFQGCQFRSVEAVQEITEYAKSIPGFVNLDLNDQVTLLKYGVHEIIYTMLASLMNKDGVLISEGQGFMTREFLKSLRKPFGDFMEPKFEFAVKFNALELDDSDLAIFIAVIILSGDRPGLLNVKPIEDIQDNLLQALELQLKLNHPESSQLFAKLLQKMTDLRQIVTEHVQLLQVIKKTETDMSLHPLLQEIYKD
Experimental: as §1, §4, §5

SMILES: CC/C=C\C/C=C\C/C=C\C/C=C\C/C=C\CCCC(=O)OCC [EPA-EE, EPA ethyl ester, reference compound]
- Fold-Activation (vs. 0.10% DMSO) hPPAR-δ ([1]; 137 nM): 1.2 fold
- Fold-Activation (vs. 0.10% DMSO) hPPAR-δ ([1]; 412 nM): 1.2 fold
- Fold-Activation (vs. 0.10% DMSO) hPPAR-δ ([1]; 1,235 nM): 1.3 fold
- Fold-Activation (vs. 0.10% DMSO) hPPAR-δ ([1]; 3,704 nM): 1.5 fold
- Fold-Activation (vs. 0.10% DMSO) hPPAR-δ ([1]; 11,111 nM): 1.4 fold
- Fold-Activation (vs. 0.10% DMSO) hPPAR-δ ([1]; 33,333 nM): 1.8 fold
- Fold-Activation (vs. 0.10% DMSO) hPPAR-δ ([1]; 100,000 nM): 2.6* fold
- Fold-Activation (vs. 0.10% DMSO) hPPAR-δ ([1]; 300,000 nM): 3.8* fold
- Fold-Activation (vs. 0.10% DMSO) hPPAR-α ([2]; 137 nM): 0.88 fold
- Fold-Activation (vs. 0.10% DMSO) hPPAR-α ([2]; 412 nM): 1.0 fold
- Fold-Activation (vs. 0.10% DMSO) hPPAR-α ([2]; 1,235 nM): 0.90 fold
- Fold-Activation (vs. 0.10% DMSO) hPPAR-α ([2]; 3,704 nM): 0.89 fold
- Fold-Activation (vs. 0.10% DMSO) hPPAR-α ([2]; 11,111 nM): 0.86 fold
- Fold-Activation (vs. 0.10% DMSO) hPPAR-α ([2]; 33,333 nM): 0.95 fold
- Fold-Activation (vs. 0.10% DMSO) hPPAR-α ([2]; 100,000 nM): 1.1 fold
- Fold-Activation (vs. 0.10% DMSO) hPPAR-α ([2]; 300,000 nM): 2.0* fold
- Fold-Activation (vs. 0.10% DMSO) rPPAR-α ([3]; 137 nM): 1.3 fold
- Fold-Activation (vs. 0.10% DMSO) rPPAR-α ([3]; 412 nM): 1.3 fold
- Fold-Activation (vs. 0.10% DMSO) rPPAR-α ([3]; 1,235 nM): 1.3 fold
- Fold-Activation (vs. 0.10% DMSO) rPPAR-α ([3]; 3,704 nM): 1.3 fold
- Fold-Activation (vs. 0.10% DMSO) rPPAR-α ([3]; 11,111 nM): 1.4 fold
- Fold-Activation (vs. 0.10% DMSO) rPPAR-α ([3]; 33,333 nM): 1.3 fold
- Fold-Activation (vs. 0.10% DMSO) rPPAR-α ([3]; 100,000 nM): 1.3 fold
- Fold-Activation (vs. 0.10% DMSO) rPPAR-α ([3]; 300,000 nM): 1.5 fold
- % Inhibition of agonist-stimulated receptor activity vs. 0.10% DMSO, hPPAR-δ ([4]; 137 nM): −3.4%
- % Inhibition of agonist-stimulated receptor activity vs. 0.10% DMSO, hPPAR-δ ([4]; 412 nM): −8.9%
- % Inhibition of agonist-stimulated receptor activity vs. 0.10% DMSO, hPPAR-δ ([4]; 1,235 nM): −5.5%
- % Inhibition of agonist-stimulated receptor activity vs. 0.10% DMSO, hPPAR-δ ([4]; 3,704 nM): −15%
- % Inhibition of agonist-stimulated receptor activity vs. 0.10% DMSO, hPPAR-δ ([4]; 11,111 nM): −7.9%
- % Inhibition of agonist-stimulated receptor activity vs. 0.10% DMSO, hPPAR-δ ([4]; 33,333 nM): −18%
- % Inhibition of agonist-stimulated receptor activity vs. 0.10% DMSO, hPPAR-δ ([4]; 100,000 nM): −6.8%
- % Inhibition of agonist-stimulated receptor activity vs. 0.10% DMSO, hPPAR-δ ([4]; 300,000 nM): 11%
- inhibition of human PPARs (in words), hPPARδ ([4]; at higher test concentrations): does not exhibit similar inhibitory activity
- % Inhibition of agonist-stimulated receptor activity vs. 0.10% DMSO, hPPAR-α ([5]; 137 nM): 35%
- % Inhibition of agonist-stimulated receptor activity vs. 0.10% DMSO, hPPAR-α ([5]; 412 nM): 20%
- % Inhibition of agonist-stimulated receptor activity vs. 0.10% DMSO, hPPAR-α ([5]; 1,235 nM): 18%
- % Inhibition of agonist-stimulated receptor activity vs. 0.10% DMSO, hPPAR-α ([5]; 3,704 nM): 17%
- % Inhibition of agonist-stimulated receptor activity vs. 0.10% DMSO, hPPAR-α ([5]; 11,111 nM): 11%
- % Inhibition of agonist-stimulated receptor activity vs. 0.10% DMSO, hPPAR-α ([5]; 33,333 nM): 10%
- % Inhibition of agonist-stimulated receptor activity vs. 0.10% DMSO, hPPAR-α ([5]; 100,000 nM): 7.1%
- % Inhibition of agonist-stimulated receptor activity vs. 0.10% DMSO, hPPAR-α ([5]; 300,000 nM): 2.8%
- inhibition of human PPARs (in words), hPPARα ([5]; at higher test concentrations): does not exhibit similar inhibitory activity
- % Inhibition of agonist-stimulated receptor activity vs. 0.10% DMSO, rPPAR-α ([6]; 137 nM): 51%
- % Inhibition of agonist-stimulated receptor activity vs. 0.10% DMSO, rPPAR-α ([6]; 412 nM): 20%
- % Inhibition of agonist-stimulated receptor activity vs. 0.10% DMSO, rPPAR-α ([6]; 1,235 nM): 5.7%
- % Inhibition of agonist-stimulated receptor activity vs. 0.10% DMSO, rPPAR-α ([6]; 3,704 nM): 4.2%
- % Inhibition of agonist-stimulated receptor activity vs. 0.10% DMSO, rPPAR-α ([6]; 11,111 nM): −4.7%
- % Inhibition of agonist-stimulated receptor activity vs. 0.10% DMSO, rPPAR-α ([6]; 33,333 nM): 1.4%
- % Inhibition of agonist-stimulated receptor activity vs. 0.10% DMSO, rPPAR-α ([6]; 100,000 nM): 13%
- % Inhibition of agonist-stimulated receptor activity vs. 0.10% DMSO, rPPAR-α ([6]; 300,000 nM): 36%
- inhibition of rat PPARs (in words), rPPARα ([6]; at higher test concentrations): does not exhibit similar inhibitory activity
- % Inhibition of agonist-stimulated receptor activity vs. 0.10% DMSO, hPPAR-γ ([7]; 137 nM): 13%
- % Inhibition of agonist-stimulated receptor activity vs. 0.10% DMSO, hPPAR-γ ([7]; 412 nM): 3.8%
- % Inhibition of agonist-stimulated receptor activity vs. 0.10% DMSO, hPPAR-γ ([7]; 1,235 nM): −8.0%
- % Inhibition of agonist-stimulated receptor activity vs. 0.10% DMSO, hPPAR-γ ([7]; 3,704 nM): −11%
- % Inhibition of agonist-stimulated receptor activity vs. 0.10% DMSO, hPPAR-γ ([7]; 11,111 nM): −8.4%
- % Inhibition of agonist-stimulated receptor activity vs. 0.10% DMSO, hPPAR-γ ([7]; 33,333 nM): 2.9%
- % Inhibition of agonist-stimulated receptor activity vs. 0.10% DMSO, hPPAR-γ ([7]; 100,000 nM): −0.59%
- % Inhibition of agonist-stimulated receptor activity vs. 0.10% DMSO, hPPAR-γ ([7]; 300,000 nM): 30%
- inhibition of human PPARs (in words), hPPARγ ([7]; at higher test concentrations): does not exhibit similar inhibitory activity
